From patent US20250361230A1, “LATS Inhibitors and Uses Thereof” (The USA, as Represented by the Secretary, Dept. of Heath …, priority 2022, published 2025)

Columns and labels:
Assay type in all cases: biochemical
LATS2 = biological target: T1, LATS2 (Homo sapiens, UniProt Q9NRM7); test: RBC HotSpot kinase assay (33P-ATP, P81 filter-binding), LATS2; settings: Table 28, biochemical kinase assay; read-out: LATS2 IC50
T1 sequence (Q9NRM7 1-1088): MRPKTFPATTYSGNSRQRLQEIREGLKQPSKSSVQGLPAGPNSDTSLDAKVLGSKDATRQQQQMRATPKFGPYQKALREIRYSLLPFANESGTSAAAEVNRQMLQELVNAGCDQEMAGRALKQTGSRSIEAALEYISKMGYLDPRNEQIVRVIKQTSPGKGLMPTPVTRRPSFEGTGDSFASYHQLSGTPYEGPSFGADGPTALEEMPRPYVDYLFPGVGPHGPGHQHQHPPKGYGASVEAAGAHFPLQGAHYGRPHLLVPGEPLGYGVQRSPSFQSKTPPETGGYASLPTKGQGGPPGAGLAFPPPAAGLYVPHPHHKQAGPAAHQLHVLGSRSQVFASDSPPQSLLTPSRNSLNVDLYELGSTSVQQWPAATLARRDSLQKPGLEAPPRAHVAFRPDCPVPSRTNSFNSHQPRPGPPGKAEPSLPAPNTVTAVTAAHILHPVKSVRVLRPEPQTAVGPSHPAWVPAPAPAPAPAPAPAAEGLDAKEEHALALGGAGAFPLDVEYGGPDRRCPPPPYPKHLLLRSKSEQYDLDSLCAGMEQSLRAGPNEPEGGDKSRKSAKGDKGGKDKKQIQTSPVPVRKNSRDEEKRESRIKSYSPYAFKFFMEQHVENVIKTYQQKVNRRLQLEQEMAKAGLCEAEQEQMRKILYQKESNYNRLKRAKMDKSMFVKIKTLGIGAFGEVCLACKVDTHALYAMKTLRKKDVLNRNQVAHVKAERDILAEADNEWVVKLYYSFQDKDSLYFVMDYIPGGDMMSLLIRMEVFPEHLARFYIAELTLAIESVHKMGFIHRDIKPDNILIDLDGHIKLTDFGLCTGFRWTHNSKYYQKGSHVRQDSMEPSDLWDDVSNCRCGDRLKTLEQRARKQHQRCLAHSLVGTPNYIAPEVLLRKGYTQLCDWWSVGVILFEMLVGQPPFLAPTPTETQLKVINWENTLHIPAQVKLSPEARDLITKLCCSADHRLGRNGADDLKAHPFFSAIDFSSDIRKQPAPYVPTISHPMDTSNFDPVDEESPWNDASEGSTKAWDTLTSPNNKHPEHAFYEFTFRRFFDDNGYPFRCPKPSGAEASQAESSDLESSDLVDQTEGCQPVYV
Method in brief: (§1)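 Compounds were run as single 10-point titrations to give IC50 values in nM. Each kinase was mixed with substrate and cofactors in 20 mM Hepes pH 7.5 reaction buffer with 1% DMSO, then exposed to compound for 20 min. 33P-ATP was added for a 2 h room-temperature reaction, with activity measured by P81 filter binding.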

LATS1 = biological target: T2, LATS1 (Homo sapiens, UniProt O95835); test: RBC HotSpot kinase assay (33P-ATP, P81 filter-binding), LATS1; settings: Table 28, biochemical kinase assay; read-out: LATS1 IC50
T2 sequence (O95835 1-1130): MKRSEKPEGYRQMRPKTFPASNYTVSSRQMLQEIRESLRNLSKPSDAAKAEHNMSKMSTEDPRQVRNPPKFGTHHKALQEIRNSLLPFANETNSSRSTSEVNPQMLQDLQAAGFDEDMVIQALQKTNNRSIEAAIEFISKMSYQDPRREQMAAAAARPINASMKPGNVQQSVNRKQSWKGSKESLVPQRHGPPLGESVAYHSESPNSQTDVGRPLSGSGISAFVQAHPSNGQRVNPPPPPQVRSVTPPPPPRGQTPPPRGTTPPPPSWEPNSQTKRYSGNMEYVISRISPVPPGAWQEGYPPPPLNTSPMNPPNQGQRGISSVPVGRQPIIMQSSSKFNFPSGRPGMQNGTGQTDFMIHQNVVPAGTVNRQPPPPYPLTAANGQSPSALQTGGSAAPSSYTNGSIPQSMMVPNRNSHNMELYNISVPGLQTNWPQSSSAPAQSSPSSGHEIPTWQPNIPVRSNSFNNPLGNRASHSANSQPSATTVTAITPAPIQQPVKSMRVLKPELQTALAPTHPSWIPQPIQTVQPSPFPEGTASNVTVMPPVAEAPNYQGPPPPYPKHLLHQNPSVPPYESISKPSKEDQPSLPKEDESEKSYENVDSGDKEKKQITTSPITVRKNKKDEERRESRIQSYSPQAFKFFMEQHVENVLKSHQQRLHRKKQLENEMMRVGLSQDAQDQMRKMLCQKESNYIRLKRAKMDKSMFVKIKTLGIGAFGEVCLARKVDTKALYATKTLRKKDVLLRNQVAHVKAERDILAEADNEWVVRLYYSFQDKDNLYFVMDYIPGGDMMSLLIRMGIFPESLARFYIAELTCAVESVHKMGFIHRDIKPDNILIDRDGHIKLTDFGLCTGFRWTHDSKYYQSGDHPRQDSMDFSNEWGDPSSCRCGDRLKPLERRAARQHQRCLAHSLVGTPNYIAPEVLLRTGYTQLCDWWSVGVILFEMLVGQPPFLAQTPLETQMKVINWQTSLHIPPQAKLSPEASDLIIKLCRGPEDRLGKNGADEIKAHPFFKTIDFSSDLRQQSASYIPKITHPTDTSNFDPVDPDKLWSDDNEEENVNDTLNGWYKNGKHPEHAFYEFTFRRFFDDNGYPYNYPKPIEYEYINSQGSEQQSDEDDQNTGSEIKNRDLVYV
Method in brief: as §1

AKT = AKT (Homo sapiens, UniProt P31749); test: RBC HotSpot kinase assay (33P-ATP, P81 filter-binding), AKT; settings: Table 28, biochemical kinase assay; read-out: AKT IC50
AKT, sequence (P31749 whole entry): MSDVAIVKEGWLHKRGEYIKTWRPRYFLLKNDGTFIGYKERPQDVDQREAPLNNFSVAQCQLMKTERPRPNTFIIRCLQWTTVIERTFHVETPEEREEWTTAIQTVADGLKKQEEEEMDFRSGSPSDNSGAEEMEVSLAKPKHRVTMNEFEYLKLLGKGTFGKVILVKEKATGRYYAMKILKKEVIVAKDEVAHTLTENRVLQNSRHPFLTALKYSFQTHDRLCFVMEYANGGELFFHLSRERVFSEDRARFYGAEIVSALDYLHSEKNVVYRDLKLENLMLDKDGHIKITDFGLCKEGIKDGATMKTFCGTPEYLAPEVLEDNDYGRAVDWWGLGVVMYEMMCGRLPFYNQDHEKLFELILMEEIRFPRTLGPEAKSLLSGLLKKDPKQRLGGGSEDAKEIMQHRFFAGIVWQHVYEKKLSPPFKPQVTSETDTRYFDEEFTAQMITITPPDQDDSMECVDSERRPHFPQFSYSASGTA
Method in brief: as §1

Compound | IC50 (LATS2) | IC50 (LATS1) | IC50 (AKT)
C[C@@H]1CN(C(=O)[C@@H](C)N)C[C@H](C)C1(O)c1c(F)cc(-c2ccnc3[nH]cc(F)c23)cc1F (stereo partly drawn) [Compound 86, (2R)-2-amino-1-((3S,5R)-4-(2,6-difluoro-4-(3-fluoro-1H-pyrrolo[2,3-b]pyridin-4-yl)phenyl)-4-hydroxy-3,5-dimethylpiperidin-1-yl)propan-1-one] | 6.5 nM | 20.3 nM | 691 nM
C[C@@H]1CN(C(=O)CN)C[C@H](C)C1(O)c1cnc(-c2ccnc3[nH]cc(F)c23)cc1F (stereo partly drawn) [Compound 87, 2-amino-1-((3S,5R)-4-(4-fluoro-6-(3-fluoro-1H-pyrrolo[2,3-b]pyridin-4-yl)pyridin-3-yl)-4-hydroxy-3,5-dimethylpiperidin-1-yl)ethan-1-one] | 47.3 nM | 48 nM | 4010 nM
C[C@@H]1CN(C2CC3(CNC3)C2)C[C@H](C)[C@@]1(O)c1c(F)cc(-c2ccnc3[nH]cc(F)c23)cc1F [Compound 89, (3R,4s,5S)-4-(2,6-difluoro-4-(3-fluoro-1H-pyrrolo[2,3-b]pyridin-4-yl)phenyl)-3,5-dimethyl-1-(2-azaspiro[3.3]heptan-6-yl)piperidin-4-ol] | 3.8 nM | 3.7 nM | 68 nM
Cc1cc(-c2ccnc3[nH]cc(F)c23)cc(F)c1[C@@]1(O)[C@H](C)CN(C2CCNCC2)C[C@@H]1C [Compound 91, (3S,4s,5R)-4-(2-fluoro-4-(3-fluoro-1H-pyrrolo[2,3-b]pyridin-4-yl)-6-methylphenyl)-3,5-dimethyl-[1,4′-bipiperidin]-4-ol] | 4.2 nM | 7.9 nM | 179 nM
C[C@@H]1CN(Cc2ccccc2)C[C@H](C)[C@@]1(O)c1c(F)cc(-c2ccnc3[nH]cc(F)c23)cc1F [Compound 93, (3S,4s,5R)-1-benzyl-4-(2,6-difluoro-4-(3-fluoro-1H-pyrrolo[2,3-b]pyridin-4-yl)phenyl)-3,5-dimethylpiperidin-4-ol] | 7.7 nM | 10.6 nM | 2090 nM
CC(=O)N1C[C@@H](C)[C@](O)(c2c(F)cc(-c3ccnc4[nH]cc(F)c34)cc2F)[C@@H](C)C1 [Compound 94, 1-((3S,4s,5R)-4-(2,6-difluoro-4-(3-fluoro-1H-pyrrolo[2,3-b]pyridin-4-yl)phenyl)-4-hydroxy-3,5-dimethylpiperidin-1-yl)ethan-1-one] | 29.4 nM | 17.8 nM | 4750 nM
CC(=O)N1C[C@@H](C)[C@](O)(c2c(C)cc(-c3ccnc4[nH]cc(F)c34)cc2F)[C@@H](C)C1 [Compound 95, 1-((3S,5R)-4-(2-fluoro-4-(3-fluoro-1H-pyrrolo[2,3-b]pyridin-4-yl)-6-methylphenyl)-4-hydroxy-3,5-dimethylpiperidin-1-yl)ethan-1-one] | 4.8 nM | 6.9 nM | 2620 nM
COC(=O)c1c[nH]c2nccc(-c3ccc(C4(O)CCNCC4)c(Cl)c3)c12 [Compound 101, methyl 4-(3-chloro-4-(4-hydroxypiperidin-4-yl)phenyl)-1H-pyrrolo[2,3-b]pyridine-3-carboxylate] | 70.8 nM | 7.1 nM | 1950 nM
Cc1nc(-c2ccnc3[nH]cc(F)c23)ccc1C1(O)CCNCC1 [Compound 104, 4-(6-(3-fluoro-1H-pyrrolo[2,3-b]pyridin-4-yl)-2-methylpyridin-3-yl)piperidin-4-ol] | 326 nM | 145 nM | 6580 nM
COC(=O)c1c[nH]c2nccc(-c3ccc(C4(O)CNC4)c(Cl)c3)c12 [Compound 106, methyl 4-(3-chloro-4-(3-hydroxyazetidin-3-yl)phenyl)-1H-pyrrolo[2,3-b]pyridine-3-carboxylate] | 110 nM | 18.2 nM | 885 nM
Cc1nc(-c2ccnc3[nH]cc(F)c23)ccc1C1(O)CC2(CNC2)C1 [Compound 107, 6-(6-(3-fluoro-1H-pyrrolo[2,3-b]pyridin-4-yl)-2-methylpyridin-3-yl)-2-azaspiro[3.3]heptan-6-ol] | 661 nM | 473 nM | > 10000 nM

Continued, values first:

IC50 (LATS2) | IC50 (LATS1) | IC50 (AKT) | Compound
17.9 nM | 17 nM | 771 nM | OC1(c2ccc(-c3ccnc4[nH]cc(F)c34)cc2Cl)CCN2CCCC2C1 (stereo not drawn) [Compound 96, 7-(2-chloro-4-(3-fluoro-1H-pyrrolo[2,3-b]pyridin-4-yl)phenyl)octahydroindolizin-7-ol]
42.8 nM | 11.4 nM | 712 nM | OC1(c2ccc(-c3ccnc4[nH]cc(F)c34)cc2Cl)CCNCC1 [Compound 97, 4-(2-chloro-4-(3-fluoro-1H-pyrrolo[2,3-b]pyridin-4-yl)phenyl)piperidin-4-ol]
37 nM | 24 nM | 383 nM | CC1CC(O)(c2ccc(-c3ccnc4[nH]cc(F)c34)cc2Cl)CCN1 (stereo not drawn) [Compound 98, 4-(2-chloro-4-(3-fluoro-1H-pyrrolo[2,3-b]pyridin-4-yl)phenyl)-2-methylpiperidin-4-ol]
6.2 nM | 10.6 nM | 219 nM | CC1CNCCC1(O)c1ccc(-c2ccnc3[nH]cc(F)c23)cc1Cl (stereo not drawn) [Compound 99, 4-(2-chloro-4-(3-fluoro-1H-pyrrolo[2,3-b]pyridin-4-yl)phenyl)-3-methylpiperidin-4-ol]
195 nM | 230 nM | 1900 nM | CC1CC(O)(c2ccc(-c3ccnc4[nH]cc(F)c34)cc2Cl)CC(C)N1 (stereo not drawn) [Compound 100, 4-(2-chloro-4-(3-fluoro-1H-pyrrolo[2,3-b]pyridin-4-yl)phenyl)-2,6-dimethylpiperidin-4-ol]
224 nM | 82 nM | 4870 nM | OC1(c2ccc(-c3ccnc4[nH]cc(F)c34)cc2Cl)C2CNCC1C2 (stereo not drawn) [Compound 102, 6-(2-chloro-4-(3-fluoro-1H-pyrrolo[2,3-b]pyridin-4-yl)phenyl)-3-azabicyclo[3.1.1]heptan-6-ol]
162 nM | 43.9 nM | 1720 nM | O[C@]1(c2ccc(-c3ccnc4[nH]cc(F)c34)cc2Cl)[C@@H]2CC[C@H]1CNC2 [Compound 103, (1R,5S,8s)-8-(2-chloro-4-(3-fluoro-1H-pyrrolo[2,3-b]pyridin-4-yl)phenyl)-3-azabicyclo[3.2.1]octan-8-ol]
14 nM | 16 nM | 828 nM | OC1(c2ccc(-c3ccnc4[nH]cc(F)c34)cc2Cl)CNC1 [Compound 105, 3-(2-chloro-4-(3-fluoro-1H-pyrrolo[2,3-b]pyridin-4-yl)phenyl)azetidin-3-ol]
